Test [1] concerns axotomized retinal ganglion cells (RGCs). The test is described as follows: Optic nerve transection (axotomy): RGC survival at 14 days. Format: in vivo, rat. Particulars: 14 days postaxotomy, TAT-conjugated peptide. Here is the method:
Optic nerve transection was performed as previously described (Koeberle and Ball 1998; Koeberle and Bahr 2008; Koeberle, Wang et al. 2010; Magharious, D'Onofrio et al. 2011; Magharious, D'Onofrio et al. 2011; Monnier, D'Onofrio et al. 2011). Animals were placed in a stereotaxic frame and anesthetized with Isoflurane (2%; 0.8 L/min oxygen flow rate) delivered through a gas anesthesia mask. Lidocaine eye drops were used to anesthetize the cornea and ophthalmic eye ointment was applied to the cornea to prevent desiccation during surgery. […] In order to allow access to the optic nerve and surrounding dura mater sheath, the eye was rotated laterally by applying traction to the extraocular muscles. The dural sheath surrounding the optic nerve was cut longitudinally, to avoid damaging blood vessels supplying the retina. The optic nerve was gently lifted from the meningeal sheath and transected within 2 mm of the back of the eye. In order to retrogradely label RGCs, gelfoam soaked in 2% Fluorogold (Sigma) was placed over the transected optic nerve stump. The orbital contents were returned to their original location and the initial incision was closed. The optic nerve crush procedure was performed using a similar approach; however, the optic nerve was crushed using fine self-closing forceps for 6 seconds as previously described (Magharious, D'Onofrio et al. 2011; Monnier, D'Onofrio et al. 2011). The orbital contents were then similarly returned to their original location and the initial incision was closed. Following surgery, rats were placed in a recovery cage under a heat lamp and given Ketoprofen to ease post-surgical recovery.
The procedures for intraocular and optic nerve injections have been previously described (Koeberle and Ball 1998; Koeberle and Bahr 2008; Koeberle, Wang et al. 2010; Magharious, D'Onofrio et al. 2011; Magharious, D'Onofrio et al. 2011; Monnier, D'Onofrio et al. 2011). Animals received intraocular injections of each peptide at 3 and 8 days postaxotomy, prior to the onset of RGC apoptosis which occurs at 4-5 days after axotomy. Animals were placed in a stereotaxic frame and anesthetized with isoflurane, delivered through a gas anesthetic mask. The cornea was anesthetized using Alcaine eye drops (Alcon) prior to intraocular injections. A pulled glass micropipette attached to a 10 μl Hamilton syringe via a hydraulic coupling through PEEK tubing was used to deliver 4 μl of a peptide solution (10 mg/ml) into the vitreous chamber of the eye, posterior to the limbus. Care was taken to prevent damage to the lens or anterior structures of the eye. The pipette was held in place for 5 seconds after injection and slowly withdrawn from the eye to prevent reflux. Injections were performed using a surgical microscope in order to visualize pipette entry into the vitreous chamber and confirm delivery of the injected solution.
To directly target RGCs, peptide solutions were injected into the transected optic nerve stump using a 10 microliter Hamilton syringe. A total of 5 microliters of peptide suspension (10 mg/ml) were injected. The majority of the injected fluid will reflux out of the optic nerve during this procedure, so the remaining pool of peptide suspension is left in place when returning the orbital contents to their original positions.
For intraperitoneal injections, 1 ml of saline containing 0.5 mg of dissolved peptide was delivered via a 25 gauge needle attached to a 5 ml syringe, following rapid anesthesia with isoflurane to incapacitate the animal.
For eye drop application of C-terminal peptides, animals were sedated with isoflurane and placed in a stereotaxic frame, in order to reduce the blink reflex. Twenty-five microliters of a peptide suspension (1 mg/ml) was delivered to the surface of the cornea using a micropipetter with a sterile micropipette tip. Eye drops were delivered once per day, on day 1, 2, 3, 4, 5, 6, and day 7 after axotomy. […]

Test [2] concerns retinal ganglion cells (RGCs). The test is described as follows: Retinal ischemia (ophthalmic artery ligation): RGC survival at 14 days. Format: in vivo, rat. Particulars: ophthalmic vessels ligated 45 minutes; intravenous 500 μg at 1 day and 8 days after injury; 14 days after stroke. On the procedure:
The approach for temporary retinal ischemia (ophthalmic artery ligation) was similar with a few exceptions. this procedure has been previously described (Tatton, Chalmers-Redman et al. 2001). Since the optic nerve was not damaged in this procedure, RGCs had to be retrogradely labeled prior to ischemia. […] Injections were performed under gas anesthetic in a stereotaxic apparatus. […] Injections were carried out using a 10 μl Hamilton syringe actuated by a computer controlled Picopump (World Precision Instruments). […] The needle was left in place for 10 min after each injection and slowly withdrawn to prevent reflux of the injected solutions up the needle tract. The surgical approach to the optic nerve was identical to that described for optic nerve transection. After a longitudinal cut was made in the meningeal sheath surrounding the optic nerve, the nerve was gently lifted out of the sheath. The meningeal sheath including the ophthalmic artery was then clamped using a calibrated micro-vessel clamp for 45 minutes, after which the clamp was removed to permit vascular reperfusion. […]
Eyes were enucleated, the cornea and lens were removed and the remaining eye cups containing the retinas were fixed in 4% paraformaldehyde at 14 days postaxotomy. […] RGC densities were grouped by retinal eccentricity (inner, middle, outer), and expressed as mean±SEM. […]

The test system of test [3] is cultured post-natal cortical neurons. The test is described as follows: Cortical neuron survival after glutamate (crystal violet assay). Format: cell-based, rat. The note with it: 5 mM glutamate, 24 hours; increasing volumes of 10 mg/ml peptide stock; relative to control. Here is the method: Cortical neuron cultures were made from newborn (P5) rat pups. Cortical samples were triturated 30× using a P1000 pipettor in cold Dubelcco's PBS+glucose. Neurons were plated in 24 well plates coated with poly-d-lysine. 100,000 cells/well were plated in cold Neurobasal A medium+glutamax+penicillin/streptomycin. Cultures were placed in an incubator (37 Celsius, 5% CO2) for 7 days, with half the media changed after 3 days.
After 7 days in culture, the media was replaced with fresh media containing 5 mM glutamate. Experimental samples received various amounts of each peptide, whereas controls received an equivalent volume of PBS (vehicle). After 24 hours, cell survival was quantified using the crystal violet assay: Media was removed from the cells and 200 microliters of 0.2% crystal violet (dissolved in 20% methanol:80% H2O) was added to each well. After 5 minutes, wells were rinsed with distilled water and the plates were dried. Crystal violet was eluted from the cells using 0.1 M sodium citrate in 50% ethanol. 100 microliter samples from each well were then transferred to 96 well plates and absorbance was read at 540 nm. Results were expressed as the relative fold-change in comparison to the control samples that received buffer.

Ends that are not written are not given here.

“TAT-Kv2.1: TAT domain conjugated to Kv2.1 voltage-gated potassium channel C-terminal peptide HGSTRDQSI (SEQ ID NO:2) (also: TAT conjugated, site not given here; listed as Homo sapiens)”: the “increase in RGC survival compared to controls” value in test [1] (intraocular injection 10 mg/ml at 3 and 8 days) was 3 fold; in test [1] (single nerve injection 10 mg/ml at time of axotomy), 5 fold. Moreover, the “RGC density as share of the normal density of 2500 cells/mm^2” value in test [1] (nerve injection 10 mg/ml) was around 80%. Also, the “RGC survival after ischemic (stroke) injury” value in test [2] is “significantly enhanced RGC survival”. The cortical neuron survival result in test [3] was “dose-dependent survival-promoting effect”.

These data come from patent US10059742B2, “Peptides and methods and uses thereof for preventing retinal disorders” (priority 2012, dated 2018).
